{"source": "paper PMC9403976", "about": "“Elucidating the path to Plasmodium prolyl-tRNA synthetase inhibitors that overcome halofuginone resistance” (Nature Communications, 2022)", "key": {"P. falciparum Dd2-2D4": {"test_system": "P. falciparum Dd2-2D4", "test": "P. falciparum asexual blood stage (ABS) growth assay, SYBR Green, 72 h, wild-type parasites", "format": "cell-based, Plasmodium falciparum", "details": "for ABS growth dose-response, normalized signal (Replicates 1-3): Dd2-2D4", "experimental": "This assay was performed as previously described[8]. In short, P. falciparum erythrocytic-stage parasites at 1% parasitemia and 1% hematocrit in RPMI + 0.5% Albumax were seeded at 40 μL/well in 384-well plates with test compounds in triplicate, dose-response format with 10 μM dihydroartemisinin as a kill-control and blank (no compound) wells as a growth-control. […] After 72 h, growth was quantified by measuring fluorescence (Molecular Devices SpectraMax iD5) following SYBR Green 1 staining. Data were analyzed in Excel and plotted in PRISM (V. 8.4.3–9.1.0, GraphPad)."}, "[1]": {"test_system": "halofuginone-induced P. falciparum (elevated proline homeostasis)", "test": "P. falciparum ABS growth assay, SYBR Green, 72 h, halofuginone-induced parasites", "format": "cell-based, Plasmodium falciparum", "details": "Halofuginone-Induced (HFG-Induced)", "how_it_was_run": "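Dd2-derived erythrocytic-stage parasites at 1% parasitemia and 1% hematocrit in RPMI + 0.5% Albumax were exposed to compounds in triplicate dose-response. Controls were 10 μM dihydroartemisinin (kill) and no-compound wells (growth). Growth was read by SYBR Green 1 fluorescence after 72 h and used to derive EC50.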"}, "[2]": {"test_system": "HFGR-I P. falciparum (elevated proline homeostasis and PfcProRS^L482H)", "test": "P. falciparum ABS growth assay, SYBR Green, 72 h, HFGR-I parasites", "format": "cell-based, Plasmodium falciparum", "details": "HFGR-I", "description": "Parasites were maintained under standard culture conditions as described previously[56],[57]. […] The P. falciparum Dd2 cell lines used in this study (Dd2-2D4, halofuginone-induced, and HFGR-I) have previously undergone whole genome sequencing in our labs. They were also routinely assayed and EC50 values determined using the ABS growth assay (see below) with a panel of standard antimalarial compounds, including halofuginone which has differential activity for the three Dd2 lines used in these experiments. Data were cross-referenced for consistency with literature reported values and data previously acquired in the lab.\nThis assay was performed as previously described. In short, P. falciparum erythrocytic-stage parasites at 1% parasitemia and 1% hematocrit in RPMI + 0.5% Albumax were seeded at 40 μL/well in 384-well plates with test compounds in triplicate, dose-response format with 10 μM dihydroartemisinin as a kill-control and blank (no compound) wells as a growth-control. […] After 72 h, growth was quantified by measuring fluorescence (Molecular Devices SpectraMax iD5) following SYBR Green 1 staining. Data were analyzed in Excel and plotted in PRISM (V. 8.4.3–9.1.0, GraphPad)."}, "PfcProRS": {"target": "T1, PfcProRS (Plasmodium falciparum, UniProt Q8I5R7)", "T1 construct": "made in house; host or cells: E. coli SoluBL-21", "T1 sequence (Q8I5R7 249-746)": "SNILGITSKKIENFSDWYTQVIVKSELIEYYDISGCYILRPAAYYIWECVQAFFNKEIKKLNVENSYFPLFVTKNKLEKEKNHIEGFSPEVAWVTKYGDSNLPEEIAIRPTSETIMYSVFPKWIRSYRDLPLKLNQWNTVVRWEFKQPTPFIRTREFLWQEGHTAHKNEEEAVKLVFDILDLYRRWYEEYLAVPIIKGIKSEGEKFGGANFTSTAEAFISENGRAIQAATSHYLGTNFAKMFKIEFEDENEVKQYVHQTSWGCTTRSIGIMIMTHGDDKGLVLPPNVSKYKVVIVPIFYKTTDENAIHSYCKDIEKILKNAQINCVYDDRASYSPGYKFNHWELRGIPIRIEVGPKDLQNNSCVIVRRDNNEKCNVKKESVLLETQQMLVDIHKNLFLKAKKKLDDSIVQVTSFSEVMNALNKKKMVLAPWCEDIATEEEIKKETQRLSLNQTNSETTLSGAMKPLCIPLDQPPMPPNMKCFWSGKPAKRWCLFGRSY", "format": "binding", "details": "single replicates"}}, "note": "“And” between values parts separate entries of the source, which are not always exact repeats. Equal values may be shown once. Read-outs that look alike come from different tables or passages of the source."}
{"smiles": "CC(C)(C)OC(=O)N[C@H]1CC[C@@H](C(=O)Nc2nccnc2C(=O)NC2Cc3ccccc3C2)CC1", "note": "[compound 6]", "values": [{"measurement": "ABS growth dose-response, normalized signal (Replicates 1-3)", "setting": "P. falciparum Dd2-2D4; Log[inhibitor] (M) -4.699", "value": 0}, {"measurement": "ABS growth dose-response, normalized signal (Replicates 1-3)", "setting": "P. falciparum Dd2-2D4; Log[inhibitor] (M) -5.301", "value": 1}, {"measurement": "ABS growth dose-response, normalized signal (Replicates 1-3)", "setting": "P. falciparum Dd2-2D4; Log[inhibitor] (M) -5.903", "value": 4}, {"measurement": "EC50", "setting": "P. falciparum Dd2-2D4; Plasmodium falciparum, DD2, SI Fig 16b, values on -log scale, read-out: ABS - Dd2-2D4 (converted)", "value": 508, "unit": "nM"}, {"measurement": "ABS growth dose-response, normalized signal (Replicates 1-3)", "setting": "[1]; Log[inhibitor] (M) -5.000", "value": "38 and 37 and 33"}, {"measurement": "ABS growth dose-response, normalized signal (Replicates 1-3)", "setting": "[1]; Log[inhibitor] (M) -5.301", "value": "80 and 73 and 79"}, {"measurement": "ABS growth dose-response, normalized signal (Replicates 1-3)", "setting": "[1]; Log[inhibitor] (M) -5.602", "value": "89 and 91 and 90"}, {"measurement": "ABS growth dose-response, normalized signal (Replicates 1-3)", "setting": "[1]; Log[inhibitor] (M) -5.903", "value": "99 and 97 and 98"}, {"measurement": "ABS growth dose-response, normalized signal (Replicates 1-3)", "setting": "[1]; Log[inhibitor] (M) -6.204", "value": "99 and 98 and 96"}, {"measurement": "ABS growth dose-response, normalized signal (Replicates 1-3)", "setting": "[1]; Log[inhibitor] (M) -6.505", "value": "98 and 107 and 101"}, {"measurement": "ABS growth dose-response, normalized signal (Replicates 1-3)", "setting": "[1]; Log[inhibitor] (M) -6.806", "value": "93 and 91 and 99"}, {"measurement": "ABS growth dose-response, normalized signal (Replicates 1-3)", "setting": "[1]; Log[inhibitor] (M) -7.107", "value": "91 and 93 and 96"}, {"measurement": "ABS growth dose-response, normalized signal (Replicates 1-3)", "setting": "[1]; Log[inhibitor] (M) -7.408", "value": "96 and 93 and 99"}, {"measurement": "ABS growth dose-response, normalized signal (Replicates 1-3)", "setting": "[1]; Log[inhibitor] (M) -7.709", "value": "100 and 98 (2×)"}, {"measurement": "ABS growth dose-response, normalized signal (Replicates 1-3)", "setting": "[1]; Log[inhibitor] (M) -8.010", "value": "99 (2×) and 97"}, {"measurement": "ABS growth dose-response, normalized signal (Replicates 1-3)", "setting": "[1]; Log[inhibitor] (M) -8.311", "value": "98 and 97 and 96"}, {"measurement": "ABS growth dose-response, normalized signal (Replicates 1-3)", "setting": "[2]; Log[inhibitor] (M) -5.000", "value": "30 and 31 and 35"}, {"measurement": "ABS growth dose-response, normalized signal (Replicates 1-3)", "setting": "[2]; Log[inhibitor] (M) -5.301", "value": "64 and 68 and 70"}, {"measurement": "ABS growth dose-response, normalized signal (Replicates 1-3)", "setting": "[2]; Log[inhibitor] (M) -5.602", "value": "83 (2×) and 82"}, {"measurement": "ABS growth dose-response, normalized signal (Replicates 1-3)", "setting": "[2]; Log[inhibitor] (M) -5.903", "value": "92 and 97 and 94"}, {"measurement": "ABS growth dose-response, normalized signal (Replicates 1-3)", "setting": "[2]; Log[inhibitor] (M) -6.204", "value": "105 and 106 and 108"}, {"measurement": "ABS growth dose-response, normalized signal (Replicates 1-3)", "setting": "[2]; Log[inhibitor] (M) -6.505", "value": "108 (2×) and 110"}, {"measurement": "ABS growth dose-response, normalized signal (Replicates 1-3)", "setting": "[2]; Log[inhibitor] (M) -6.806", "value": "85 and 90 (2×)"}, {"measurement": "ABS growth dose-response, normalized signal (Replicates 1-3)", "setting": "[2]; Log[inhibitor] (M) -7.107", "value": "91 and 92 and 97"}, {"measurement": "ABS growth dose-response, normalized signal (Replicates 1-3)", "setting": "[2]; Log[inhibitor] (M) -7.408", "value": "92 and 97 and 99"}, {"measurement": "ABS growth dose-response, normalized signal (Replicates 1-3)", "setting": "[2]; Log[inhibitor] (M) -7.709", "value": "95 and 99 (2×)"}, {"measurement": "ABS growth dose-response, normalized signal (Replicates 1-3)", "setting": "[2]; Log[inhibitor] (M) -8.010", "value": "107 and 102 and 97"}, {"measurement": "ABS growth dose-response, normalized signal (Replicates 1-3)", "setting": "[2]; Log[inhibitor] (M) -8.311", "value": "104 and 108 and 101"}, {"measurement": "dose-response signal (normalized), SI Fig 8", "setting": "PfcProRS; Log[inhibitor] (M) -5.000", "value": "-1.61E-02 and -5.30E-02 and -3.81E-03"}, {"measurement": "dose-response signal (normalized), SI Fig 8", "setting": "PfcProRS; Log[inhibitor] (M) -5.301", "value": "-7.80E-02 and -1.87E-02 and -8.78E-02"}, {"measurement": "dose-response signal (normalized), SI Fig 8", "setting": "PfcProRS; Log[inhibitor] (M) -5.601", "value": "1.78E-02 and -1.26E-02 and 5.92E-03"}, {"measurement": "dose-response signal (normalized), SI Fig 8", "setting": "PfcProRS; Log[inhibitor] (M) -5.904", "value": "6.25E-02 and 5.05E-02 and 9.24E-02"}, {"measurement": "dose-response signal (normalized), SI Fig 8", "setting": "PfcProRS; Log[inhibitor] (M) -6.208", "value": "5.23E-02 and 1.76E-01 and 1.80E-01"}, {"measurement": "dose-response signal (normalized), SI Fig 8", "setting": "PfcProRS; Log[inhibitor] (M) -6.509", "value": "2.25E-01 and 2.68E-01 and 2.02E-01"}, {"measurement": "dose-response signal (normalized), SI Fig 8", "setting": "PfcProRS; Log[inhibitor] (M) -6.796", "value": "4.96E-01 and 4.42E-01 and 4.81E-01"}, {"measurement": "dose-response signal (normalized), SI Fig 8", "setting": "PfcProRS; Log[inhibitor] (M) -7.108", "value": "6.45E-01 and 6.22E-01 and 4.90E-01"}, {"measurement": "dose-response signal (normalized), SI Fig 8", "setting": "PfcProRS; Log[inhibitor] (M) -7.409", "value": "7.15E-01 and 8.22E-01 and 8.32E-01"}, {"measurement": "dose-response signal (normalized), SI Fig 8", "setting": "PfcProRS; Log[inhibitor] (M) -7.710", "value": "9.70E-01 and 9.04E-01 and 8.55E-01"}]}
